# Measurements as given in patent US20250235543A1, “MODIFIED PROTEINS AND PROTEIN DEGRADERS” (Cullgen (Shanghai), Inc., priority 2021, published 2025).
# Like-named read-outs stand apart in the source and are kept apart here.
# How the values were obtained:
# cyclin D1 = assay: Cyclin D1 percentage degradation in Calu-1 cells (immunoblotting); format: cell-based; conditions: 16 hours
# In short: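 Cells were rinsed once in cold PBS and lysed in cold RIPA buffer containing protease and phosphatase inhibitors, with gentle agitation at 4° C. for 30 min. Lysates were spun at 13,000 rpm for 10 min at 4° C., protein was measured by BCA, and samples were boiled in Laemmli buffer at 99° C. for 5 min before SDS-PAGE immunoblotting.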
# CDK4 = molecular target: T1, CDK4 (Homo sapiens, UniProt P11802); assay: CDK4 percentage degradation in Calu-1 cells (immunoblotting); format: cell-based; conditions: for inhibition at 0.2 µM: read-out: CDK4 Degradation (200 nM); for inhibition at 10 µM: read-out: CDK4 Degradation (10 μM)
# T1 construct: endogenous in cells; host or cells: Calu-1
# T1 sequence (P11802 2-303 limits assumed): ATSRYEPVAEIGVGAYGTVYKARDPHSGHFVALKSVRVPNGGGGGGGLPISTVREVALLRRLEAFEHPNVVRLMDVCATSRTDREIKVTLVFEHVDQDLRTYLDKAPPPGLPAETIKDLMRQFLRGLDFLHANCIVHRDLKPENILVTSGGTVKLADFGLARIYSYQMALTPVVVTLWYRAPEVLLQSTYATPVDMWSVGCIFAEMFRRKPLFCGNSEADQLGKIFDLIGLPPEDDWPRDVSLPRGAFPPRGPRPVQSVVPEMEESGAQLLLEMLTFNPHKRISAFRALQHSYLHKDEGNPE
# T1 sequence (P24385 whole entry partner): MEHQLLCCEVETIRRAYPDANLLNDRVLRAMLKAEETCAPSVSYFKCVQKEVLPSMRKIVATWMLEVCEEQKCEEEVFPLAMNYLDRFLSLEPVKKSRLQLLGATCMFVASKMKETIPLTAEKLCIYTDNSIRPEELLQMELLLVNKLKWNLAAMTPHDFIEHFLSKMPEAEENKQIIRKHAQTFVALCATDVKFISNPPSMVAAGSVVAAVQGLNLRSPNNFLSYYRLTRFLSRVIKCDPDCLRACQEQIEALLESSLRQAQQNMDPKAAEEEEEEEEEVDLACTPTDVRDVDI
# T1 sequence (Q16531 2-1140 limits assumed, further chain): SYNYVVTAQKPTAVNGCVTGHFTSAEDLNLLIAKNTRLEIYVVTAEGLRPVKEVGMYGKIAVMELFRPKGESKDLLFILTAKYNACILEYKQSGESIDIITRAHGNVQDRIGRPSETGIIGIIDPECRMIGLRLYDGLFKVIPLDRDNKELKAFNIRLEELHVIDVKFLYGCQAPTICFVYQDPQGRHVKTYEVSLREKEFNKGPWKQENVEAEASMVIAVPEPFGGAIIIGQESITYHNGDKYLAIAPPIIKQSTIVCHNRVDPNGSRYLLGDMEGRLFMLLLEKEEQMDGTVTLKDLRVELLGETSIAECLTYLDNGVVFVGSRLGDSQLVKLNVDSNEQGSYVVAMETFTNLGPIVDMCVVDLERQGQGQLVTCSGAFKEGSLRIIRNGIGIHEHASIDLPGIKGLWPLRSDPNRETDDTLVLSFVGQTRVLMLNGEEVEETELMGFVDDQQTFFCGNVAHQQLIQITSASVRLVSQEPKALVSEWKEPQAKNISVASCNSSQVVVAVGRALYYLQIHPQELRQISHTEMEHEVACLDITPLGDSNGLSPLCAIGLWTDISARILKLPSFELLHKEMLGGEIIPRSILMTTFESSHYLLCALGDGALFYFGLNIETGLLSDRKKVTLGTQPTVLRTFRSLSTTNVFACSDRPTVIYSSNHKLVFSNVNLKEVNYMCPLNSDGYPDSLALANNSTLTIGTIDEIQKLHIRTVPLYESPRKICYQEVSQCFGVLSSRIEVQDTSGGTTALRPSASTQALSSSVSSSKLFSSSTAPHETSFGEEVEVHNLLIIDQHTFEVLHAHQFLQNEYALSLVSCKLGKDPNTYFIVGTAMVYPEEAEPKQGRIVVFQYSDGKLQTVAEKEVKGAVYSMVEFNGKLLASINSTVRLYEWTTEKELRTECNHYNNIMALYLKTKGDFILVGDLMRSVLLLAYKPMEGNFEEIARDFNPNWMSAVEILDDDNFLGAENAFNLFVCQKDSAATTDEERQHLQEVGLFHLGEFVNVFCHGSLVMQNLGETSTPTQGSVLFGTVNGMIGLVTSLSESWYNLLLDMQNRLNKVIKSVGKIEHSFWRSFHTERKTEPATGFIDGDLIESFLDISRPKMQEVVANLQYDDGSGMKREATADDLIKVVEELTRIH
# In short: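 Cultured cells were rinsed once in cold PBS and lysed in cold RIPA buffer containing protease and phosphatase inhibitors, with gentle agitation at 4° C. for 30 min. Lysates were centrifuged at 13,000 rpm for 10 min at 4° C., and protein was quantified by BCA. Samples were then separated by SDS-PAGE, detected with ECL, and the CDK4 bands quantified in Image Lab.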
"inhibition at 0.2 µM (CDK4; Calu-1 cells, 200 nM, 16 hours) [%]","inhibition at 10 µM (CDK4; Calu-1 cells, 16 hours) [%]",Structure (SMILES),CyclinD1 Degradation (200 nM) (cyclin D1),CyclinD1 Degradation (10 μM) (cyclin D1),"inhibition at 0.2 µM (CDK4; Calu-1, 16 h) [%]"
50 to 80,,"CC(=O)c1c(C)c2cnc(Nc3ccc(N4CCN(CC(=O)NCCCCCNc5cc(C)ccc5C(=O)Nc5ccc(N(C)C)nn5)CC4)cn3)nc2n(C2CCCC2)c1=O [CPD-373, 2-((5-(2-(4-(6-((6-Acetyl-8-cyclopentyl-5-methyl-7-oxo-7,8-dihydropyrido[2,3-d]pyrimidin-2-yl)amino)pyridin-3-yl)piperazin-1-yl)acetamido)pentyl)amino)-N-(6-(dimethylamino)pyridazin-3-yl)-4-methylbenzamide]",A (protein percentage degradation >=80%),,
50 to 80,,"CC(=O)c1c(C)c2cnc(Nc3ccc(N4CCN(CC(=O)NCCCCCCCC(=O)Nc5ccccc5C(=O)Nc5nc(C)c(C)s5)CC4)cn3)nc2n(C2CCCC2)c1=O [CPD-136, 2-(8-(2-(4-(6-((6-Acetyl-8-cyclopentyl-5-methyl-7-oxo-7,8-dihydropyrido[2,3-d]pyrimidin-2-yl)amino)pyridin-3-yl)piperazin-1-yl)acetamido)octanamido)-N-(4,5-dimethylthiazol-2-yl)benzamide]",A (protein percentage degradation >=80%),,
,50 to 80,"Cc1nc(NC(=O)c2ccccc2NC(=O)CCOCCNC(=O)CN2CCN(c3ccc(Nc4ncc5cc(C(=O)N(C)C)n(C6CCCC6)c5n4)nc3)CC2)sc1C [CPD-294, 7-Cyclopentyl-2-((5-(4-(2-((2-(3-((2-((4,5-dimethylthiazol-2-yl)carbamoyl)phenyl)amino)-3-oxopropoxy)ethyl)amino)-2-oxoethyl)piperazin-1-yl)pyridin-2-yl)amino)-N,N-dimethyl-7H-pyrrolo[2,3-d]pyrimidine-6-carboxamide]",,A (protein percentage degradation >= 80%),
< 30,,"CC(=O)c1c(C)c2cnc(Nc3ccc(N4CCN(CC(=O)NCCNc5ccc(C)c(C(=O)Nc6nc(C)c(C)s6)c5)CC4)cn3)nc2n(C2CCCC2)c1=O [CPD-093, 5-((2-(2-(4-(6-((6-Acetyl-8-cyclopentyl-5-methyl-7-oxo-7,8-dihydropyrido[2,3-d]pyrimidin-2-yl)amino)pyridin-3-yl)piperazin-1-yl)acetamido)ethyl)amino)-N-(4,5-dimethylthiazol-2-yl)-2-methylbenzamide]",D (protein percentage degradation <30%),,
,,"CC(=O)c1c(C)c2cnc(Nc3ccc(N4CCN(C(=O)CCOCCOCCOCCOCCOCCC(=O)Nc5ccccc5C(=O)Nc5nc(C)c(C)s5)CC4)cn3)nc2n(C2CCCC2)c1=O [CPD-163, 19-(4-(6-((6-Acetyl-8-cyclopentyl-5-methyl-7-oxo-7,8-dihydropyrido[2,3-d]pyrimidin-2-yl)amino)pyridin-3-yl)piperazin-1-yl)-N-(2-((4,5-dimethylthiazol-2-yl)carbamoyl)phenyl)-19-oxo-4,7,10,13,16-pentaoxanonadecanamide]",A (protein percentage degradation >=80%),,50 to 80
,,"CC(=O)c1c(C)c2cnc(Nc3ccc(N4CCN(C(=O)CCOCCOCCOCCOCCOCCOCCNc5cccc(C(=O)Nc6nc(C)c(C)s6)c5C)CC4)cn3)nc2n(C2CCCC2)c1=O [CPD-133, 3-((21-(4-(6-((6-Acetyl-8-cyclopentyl-5-methyl-7-oxo-7,8-dihydropyrido[2,3-d]pyrimidin-2-yl)amino)pyridin-3-yl)piperazin-1-yl)-21-oxo-3,6,9,12,15,18-hexaoxahenicosyl)amino)-N-(4,5-dimethylthiazol-2-yl)-2-methylbenzamide]",A (protein percentage degradation >=80%),,50 to 80
,< 30,"Cc1nc(NC(=O)c2ccccc2NC(=O)CNC(=O)CN2CCN(c3ccc(Nc4ncc5cc6n(c5n4)C4(CCCCC4)CNC6=O)nc3)CC2)sc1C [CPD-314, N-(4,5-Dimethylthiazol-2-yl)-2-(2-(2-(4-(6-((6′-oxo-7′,8′-dihydro-6′H-spiro[cyclohexane-1,9′-pyrazino[1′,2′:1,5]pyrrolo[2,3-d]pyrimidin]-2′-yl)amino)pyridin-3-yl)piperazin-1-yl)acetamido)acetamido)benzamide]",,D (protein percentage degradation < 30%),
